According to the supplement of paper PMC11579375:

Legend:
Test in all cases: area under the viability dose-response curve (AUC) (AUC (arbitrary units, max 500 = no viability loss)); higher = less sensitive (higher viability)
Settings in all cases: exposure time: 120 h; concentration range: 0.1 nM - 10 µM, 6 doses
17E = tested on: 17E (embryonal-type hepatoblastoma organoid)
Experimental: (§1)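 Patient-derived hepatoblastoma tumor organoids (about 50 organoids per well, 384-well plates, medium with 5% BME) were treated with the PMC pediatric cancer drug library. Each drug was tested in duplicate at 6 concentrations (0.1 nM to 10 µM, 10-fold steps).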

13F2 = tested on: 13F2 (fetal-II hepatoblastoma organoid with high liver markers)
Experimental: as §1

27F1 = tested on: 27F1 (fetal-I hepatoblastoma organoid with intermediate liver markers)
Experimental: as §1

22E = tested on: 22E (embryonal-type hepatoblastoma organoid)
Experimental: as §1

8F1 = tested on: 8F1 (fetal-I hepatoblastoma organoid with intermediate liver markers)
Experimental: as §1

10F2 = tested on: 10F2 (fetal-II hepatoblastoma organoid with high liver markers)
Experimental: as §1

135F2 = tested on: 135F2 (fetal-II hepatoblastoma organoid with high liver markers)
Experimental: as §1

3E = tested on: 3E (embryonal-type hepatoblastoma organoid)
Experimental: as §1

17F1 = tested on: 17F1 (fetal-I hepatoblastoma organoid with intermediate liver markers)
Experimental: as §1

13E = tested on: 13E (embryonal-type hepatoblastoma organoid)
Experimental: as §1

96F1 = tested on: 96F1 (fetal-I hepatoblastoma organoid with intermediate liver markers)
Experimental: as §1

SMILES | area under the viability dose-response curve (17E) | area under the viability dose-response curve (13F2) | area under the viability dose-response curve (27F1) | area under the viability dose-response curve (22E) | area under the viability dose-response curve (8F1) | area under the viability dose-response curve (10F2) | area under the viability dose-response curve (135F2) | area under the viability dose-response curve (3E) | area under the viability dose-response curve (17F1) | area under the viability dose-response curve (13E) | area under the viability dose-response curve (96F1)
CN/N=N/c1[nH]cnc1C(N)=O [MTIC] | > 500 | 443 | > 500 | > 500 | > 500 | 445 | > 500 | > 500 | > 500 | > 500 | > 500
CNC(=O)c1ccc(Nc2ncc(C(F)(F)F)c(NCc3nccnc3N(C)S(C)(=O)=O)n2)cc1 [Defactinib] | 449 | 442 | 455 | 469 | 466 | 465 | 454 | 454 | 466 | 443 | 443
Cn1cnc2c(F)c(Nc3ccc(Br)cc3F)c(C(=O)NOCCO)cc21 [Binimetinib] | 424 | 379 | 499 | 489 | > 500 | 343 | 396 | > 500 | 458 | 490 | 481
CS(=O)(=O)N1CCN(Cc2cc3nc(-c4cccc5[nH]ncc45)nc(N4CCOCC4)c3s2)CC1 [Pictilisib] | 350 | 365 | 376 | 404 | 482 | 391 | 411 | 380 | 493 | 413 | 422
S=P(N1CC1)(N1CC1)N1CC1 [ThioTEPA] | 443 | 433 | 472 | 474 | 478 | 394 | 440 | 400 | 488 | 483 | 461
Nc1cc(F)ccc1NC(=O)c1ccc(CNC(=O)/C=C/c2cccnc2)cc1 [Epidaza] | 437 | 426 | 482 | 461 | > 500 | 395 | 444 | 466 | 467 | 448 | 492
CC(=O)O[C@H]1C(=O)[C@@]2(C)[C@H]([C@H](OC(=O)c3ccccc3)[C@]3(O)C[C@H](OC(=O)[C@H](O)[C@@H](NC(=O)c4ccccc4)c4ccccc4)C(C)=C1C3(C)C)[C@]1(OC(C)=O)CO[C@@H]1C[C@@H]2O [Paclitaxel] | 174 | 215 | 250 | 229 | 312 | 179 | 211 | 145 | 222 | 196 | 179
c1cn2cc(-c3ccc4cn[nH]c4c3)nc(Nc3ccc(N4CCOCC4)cc3)c2n1 [Entospletinib] | > 500 | > 500 | 490 | 496 | 480 | 462 | 481 | 473 | 480 | 486 | 480
CC(=O)c1c(C)c2cnc(Nc3ccc(N4CCNCC4)cn3)nc2n(C2CCCC2)c1=O [Palbociclib] | 373 | 337 | 470 | 460 | 499 | 398 | 431 | 382 | > 500 | 467 | 460
C[C@@H](NC(=O)c1ncnc(N)c1Cl)c1ncc(C(=O)Nc2cc(C(F)(F)F)c(Cl)cn2)s1 [TAK-580] | > 500 | 485 | > 500 | > 500 | > 500 | 433 | 449 | > 500 | > 500 | > 500 | > 500
CCn1c(-c2nonc2N)nc2cnc(Oc3cccc(NC(=O)c4ccc(OCCN5CCOCC5)cc4)c3)cc21 | 450 | 392 | 481 | 468 | 467 | 348 | 441 | 493 | 451 | 478 | 469
CCNC(=O)C[C@@H]1N=C(c2ccc(Cl)cc2)c2cc(OC)ccc2-n2c(C)nnc21 [Molibresib] | 400 | 389 | 498 | 442 | 465 | 386 | 417 | 378 | 477 | 468 | 497
C=CC(=O)N1C[C@H](Nc2ncnc3[nH]ccc23)CC[C@@H]1C | > 500 | 460 | > 500 | > 500 | 495 | 426 | 471 | 463 | 488 | > 500 | 482
COc1cc(OC)cc(N(CCNC(C)C)c2ccc3ncc(-c4cnn(C)c4)nc3c2)c1 [Erdafitinib] | 231 | 323 | 467 | 345 | 489 | 448 | 496 | 227 | 499 | 341 | 498
COc1ccc(-c2ccc3c(N4CCOC[C@@H]4C)nc(N4CCOC[C@@H]4C)nc3n2)cc1CO [AZD8055] | 331 | 278 | 468 | 396 | 466 | 259 | 342 | 316 | 456 | 366 | 445
C[C@@H]1C[C@H]2[C@@H]3CCC4=CC(=O)C=C[C@]4(C)[C@@]3(F)[C@@H](O)C[C@]2(C)[C@@]1(O)C(=O)CO [Dexamethasone] | > 500 | 494 | > 500 | 497 | 484 | > 500 | 472 | > 500 | 477 | 473 | > 500
COCC[n+]1c2c(n(Cc3cnccn3)c1C)C(=O)c1ccccc1C2=O [Sepantronium bromide] | 331 | 395 | 408 | 316 | 429 | 348 | 427 | 241 | 312 | 337 | 286

SMILES | area under the viability dose-response curve (17E) | area under the viability dose-response curve (13F2) | area under the viability dose-response curve (27F1) | area under the viability dose-response curve (22E) | area under the viability dose-response curve (8F1) | area under the viability dose-response curve (10F2) | area under the viability dose-response curve (135F2) | area under the viability dose-response curve (3E) | area under the viability dose-response curve (17F1) | area under the viability dose-response curve (13E) | area under the viability dose-response curve (96F1)
O=c1cc(-c2cccc3c2Sc2ccccc2S3)oc(N2CCOCC2)c1 | 498 | 500 | > 500 | 497 | > 500 | 455 | > 500 | 490 | > 500 | 498 | > 500
COc1cc(N2CCC(N3CCN(C)CC3)CC2)ccc1Nc1ncc(Cl)c(Nc2ccccc2P(C)(C)=O)n1 [Brigatinib] | 398 | 388 | 420 | 381 | 454 | 399 | 392 | 349 | 426 | 402 | 427
CCc1c2c(nc3ccc(O)cc13)-c1cc3c(c(=O)n1C2)COC(=O)[C@]3(O)CC [SN-38 (Irinotecan)] | 200 | 162 | 178 | 312 | 251 | 173 | 156 | 156 | 189 | 266 | 173
CC[C@]1(O)C[C@H]2CN(CCc3c([nH]c4ccccc34)[C@@](C(=O)OC)(c3cc4c(cc3OC)N(C=O)[C@H]3[C@@](O)(C(=O)OC)[C@H](OC(C)=O)[C@]5(CC)C=CCN6CC[C@]43[C@@H]65)C2)C1 [Vincristine] | 181 | 222 | 218 | 193 | 243 | 188 | 209 | 125 | 180 | 174 | 196
COc1cc2nccc(Oc3ccc(NC(=O)C4(C(=O)Nc5ccc(F)cc5)CC4)cc3)c2cc1OC [Cabozantinib] | 439 | 442 | > 500 | 445 | 489 | 488 | 491 | 457 | > 500 | 478 | 475
Cc1ccc(NC(=O)c2ccc(CN3CCN(C)CC3)cc2)cc1Nc1nccc(-c2cccnc2)n1 [Imatinib] | 496 | 498 | 481 | 500 | 483 | 488 | 478 | 487 | 478 | 499 | 498
Cc1cc(-c2ncc(CC(=O)Nc3ccc(-c4cnccn4)cn3)cc2C)ccn1 [LGK974] | 475 | 477 | 492 | 494 | 489 | 474 | 499 | > 500 | 497 | 497 | 491
C[C@@H](c1ccc2nccn2c1)n1nnc2ncc(-c3cnn(C)c3)nc21 [Savolitinib] | 499 | > 500 | > 500 | > 500 | > 500 | 472 | 497 | 489 | 489 | > 500 | > 500
O=C(CCCCCCC(=O)Nc1ccccc1)NO [Vorinostat] | 406 | 400 | 440 | 421 | 452 | 404 | 408 | 379 | 437 | 428 | 435
COc1cc(C(=O)O)ccc1NC(=O)[C@@H]1N[C@@H](CC(C)(C)C)[C@](C#N)(c2ccc(Cl)cc2F)[C@H]1c1cccc(Cl)c1F [Idasanutlin] | 378 | 282 | 402 | 450 | 371 | 291 | 397 | 349 | 457 | 413 | 471
Nc1ccccc1NC(=O)c1ccc(CNC(=O)OCc2cccnc2)cc1 [Entinostat] | 428 | 429 | 462 | 439 | 426 | 358 | 455 | 386 | 434 | 425 | 483
CCN(c1cc(-c2ccc(CN3CCOCC3)cc2)cc(C(=O)NCc2c(C)cc(C)[nH]c2=O)c1C)C1CCOCC1 [Tazemetostat] | 415 | 360 | 475 | 481 | > 500 | 448 | 473 | 461 | 482 | 479 | 473
CC[C@H](NC(=O)[C@H](C)NC)C(=O)N1C[C@@H](O)C[C@H]1Cc1c(-c2[nH]c3cc(F)ccc3c2C[C@@H]2C[C@H](O)CN2C(=O)[C@H](CC)NC(=O)[C@H](C)NC)[nH]c2cc(F)ccc12 [Birinapant] | 434 | 483 | > 500 | 204 | 468 | 425 | 483 | 237 | 467 | 473 | 480
CC[C@]1(O)C[C@@H]2CN(CCc3c([nH]c4ccccc34)[C@@](C(=O)OC)(c3cc4c(cc3OC)N(C)[C@H]3[C@@](O)(C(N)=O)[C@H](O)[C@]5(CC)C=CCN6CC[C@]43[C@@H]65)C2)C1 [Vindesine] | 206 | 246 | 238 | 219 | 211 | 195 | 202 | 170 | 239 | 204 | 173
Cn1nnc2c(C(N)=O)ncn2c1=O [Temozolomide] | 462 | 487 | > 500 | 490 | > 500 | 468 | > 500 | 499 | 494 | > 500 | 480
CN1CCN(CCOc2cc(OC3CCOCC3)c3c(Nc4c(Cl)ccc5c4OCO5)ncnc3c2)CC1 [Saracatinib] | 455 | 415 | 381 | 477 | 475 | 422 | 478 | 492 | 493 | 464 | 466
C[C@H]1Oc2cc(cnc2N)-c2c(nn(C)c2C#N)CN(C)C(=O)c2ccc(F)cc21 [Lorlatinib] | 416 | 448 | 471 | 471 | 476 | 435 | 498 | 459 | 481 | 450 | 463
